From patent US5770590A, “Cyclic compounds, their prudiction and use” (Takeda Chemical Industries, Ltd., priority 1995, dated 1998)

What was measured:
[1] = system: plasma extravasation induced by capsaicin in trachea; assay: Inhibitory effect on plasma extravasation induced by capsaicin in trachea of guinea pigs; type: in vivo, guinea pigs (Hartley type white male); conditions: Table 3, Dunnett's test *p < 0.05, **p < 0.01, ***p < 0.001
Description: [Inhibitory effect on plasma extravasation induced by capsaicin in trachea of guinea pigs] Guinea pigs (Hartley type white male guinea pige), (n=6) were anesthetized with 35 mg/kg of pentobarbital injected intraperitoneally (i.p.), then test compounds were administered intravenously (i.v.). After 5 minutes, a mixed solution of capsaicin (150 μg/kg) and Evans' blue dye (20 mg/kg) was administered intravenously to cause reaction. Ten minutes later, test animals were sacrificed by cutting the aorta, then perfused through pulmonary artery with 50 ml of physiological saline. The trachea was excised, and its wet weight was measure. The trachea was incubated at room temperature in 1 ml of acetone-0.3% sodium sulfate (7:3) overnight and Evans' blue dye was extracted from the trachea. The extract solution was centrifuged at 2800 rpm for 5 minutes. The amount of Evans' blue dye in the supernatant was quantified by measuring absorbance at […]. Plasma extravasation was expressed in terms of the amount of Evans' blue dye (μg) relative to the weight of the trachea (g). The efficacy of the drug was evaluated by calculating the % inhibition in accordance with the following formula, or expressed in terms of [formula] A: the amount of Evan's blue dye (μg/g) in each test animal B: The mean amount of Evan's blue dye (μg/g) of the group untreated with capsaicin.

[2] = biological target: T1, substance P receptor (receptor from human lymphoblast cells (IM-9)) (Homo sapiens, UniProt P25103); assay: Radioligand receptor binding inhibitory activity using receptor from human lymphoblast cells (IM-9), 125I-BHSP; conditions: Table 1, IM-9 receptor, 25° C., 30 minutes
T1 construct: The receptor was prepared from human lymphoblast cells (IM-9); endogenous in cells; host or cells: IM-9 human lymphoblast cells (crude membranes)
Description: The receptor was prepared from human lymphoblast cells (IM-9). IM-9 cells (2×10^5 cells/ml) were inoculated and incubated for 3 days (one liter), which was then subjected to centrifuge for 5 minutes at 500×g to obtain cell pellets.
After washing three times with 250 ul of 50 mM of Tris-HCl buffer (pH 7.4) containing 0.02% bovine serum albumin, the radioactivity remaining on the filter was determined with a gamma counter. Before use, the filter was immersed in 0.1% polyethyleneimine for 24 hours and air-dried.

T1 sequence (P25103 whole entry): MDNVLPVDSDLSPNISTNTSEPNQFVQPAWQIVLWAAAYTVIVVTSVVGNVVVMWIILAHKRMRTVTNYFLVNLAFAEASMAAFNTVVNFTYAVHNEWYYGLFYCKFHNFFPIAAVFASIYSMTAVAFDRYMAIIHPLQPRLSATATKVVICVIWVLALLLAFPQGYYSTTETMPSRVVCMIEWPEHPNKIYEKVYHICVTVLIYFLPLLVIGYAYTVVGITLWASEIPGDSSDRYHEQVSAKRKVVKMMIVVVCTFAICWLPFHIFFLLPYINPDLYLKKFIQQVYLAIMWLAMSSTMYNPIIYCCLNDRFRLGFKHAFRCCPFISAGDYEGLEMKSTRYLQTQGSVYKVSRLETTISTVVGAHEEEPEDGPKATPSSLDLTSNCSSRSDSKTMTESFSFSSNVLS

SMILES	Inhibition of plasma extravasation ([1]; dose 10 μg/kg i.v.) [%]	Inhibition of plasma extravasation ([1]; dose 100 μg/kg i.v.) [%]	also measured
CC1CCn2c(c(-c3ccccc3)c3cccnc3c2=O)C(=O)N(Cc2cc(C(F)(F)F)cc(C(F)(F)F)c2)C1 (racemic) [Example 15, (+/-)-7-[3,5-Bis(trifluoromethyl)benzyl]-6,7,8,9,10,11-hexahydro-9-methyl-6,13-dioxo-5-phenyl-13H-[1,4]diazocino[2,1-g][1,7]naphthyridine]	68.4	–	–
Cc1ccc(-c2c3n(c(=O)c4ncccc24)CCC(C)CN(Cc2cc(C(F)(F)F)cc(C(F)(F)F)c2)C3=O)cc1 (racemic) [Example 16, (+/-)-7-[3,5-Bis(trifluoromethyl)benzyl]-6,7,8,9,10,11-hexahydro-9-methyl-5-(4-methylphenyl)-6,13-dioxo-13H-[1,4]diazocino[2,1-g][1,7]naphthyridine]	60.5	–	–
Cc1ccc(-c2c3n(c(=O)c4ncccc24)C[C@@H](C)CN(Cc2cc(C(F)(F)F)cc(C(F)(F)F)c2)C3=O)cc1 [Example 14, (9S)-7-[3,5-Bis(trifluoromethyl)benzyl]-6,7,8,9,10,12-hexahydro-9-methyl-5-(4-methylphenyl)-6,12-dioxo[1,4]diazepino[2,1-g][1,7]naphthyridine]	–	–	IC50 [2]: 0.28 nM
O=C1c2c(-c3ccccc3)ccnc2OCCCN1Cc1cc(C(F)(F)F)cc(C(F)(F)F)c1 [Example 22, 5-[3,5-Bis(trifluoromethyl)benzyl]-2,3,4,5-tetrahydro-6-oxo-7-phenyl-6H-pyrido[2,3-b][1,5]oxazocine]	–	41.2	–
Cc1cnc2c(c1-c1ccccc1)C(=O)N(Cc1cc(C(F)(F)F)cc(C(F)(F)F)c1)CCO2 [Example 23, 4-[3,5-Bis(trifluoromethyl)benzyl]-2,3,4,5-tetrahydro-7-methyl-5-oxo-6-phenylpyrido[3,2-f][1,4]oxazepine]	–	64.0	–
Cc1cnc2c(c1-c1ccccc1)C(=O)N(Cc1cc(C(F)(F)F)cc(C(F)(F)F)c1)CCCO2 [Example 24, 5-[3,5-Bis(trifluoromethyl)benzyl]-2,3,4,5-tetrahydro-8-methyl-6-oxo-7-phenyl-6H-pyrido[2,3-b][1,5]oxazocine]	–	53.1	–
